Reference: patent US9144569B2, “Methods of administering an aromatase inhibitor, prostaglandin and GnRH for regulating ovulation in cattle” (UNIVERSITY OF SASKATCHEWAN, priority 2010, dated 2015)
Where two headings read alike, the source gives them in different places.

How the values were obtained:
plasma progesterone = test: Example III: plasma progesterone after letrozole IM; type: in vivo, cattle; conditions: 1 mg/kg IM; P<0.06
Protocol: Ovarian cyclicity in heifers was synchronized using transvaginal ultrasound-guided follicular ablation followed by a double dose of PGF 4 days after ablation. The ovaries were examined daily by transrectal ultrasonography to detect ovulation. Three days after ovulation, heifers were assigned randomly to four treatment groups and given letrozole at a dose of 1 mg/kg intravenously (in benzyl alcohol, n=10) or intramuscularly (in benzyl alcohol plus canola oil 1:1 v/v, n=10), or given a placebo intravenously (benzyl alcohol, n=5) or intramuscularly (benzyl alcohol plus canola oil 1:1 v/v, n=5). Ovarian structures were monitored by ultrasonography and blood samples were collected by jugular venipuncture twice daily from pre-treatment to post-treatment ovulations. Comparisons among groups were made by one-way ANOVA for single-point measurements and by ANOVA for repeated measures for time-series data.
Blood samples collected daily from treatment to post-treatment ovulation.
Endpoints are: Follicular diameter profiles; CL diameter profile; Circulating progesterone concentration; Circulating FSH and LH profiles; Letrozole profile and bioavailability; Circulating estradiol concentration Follicular fluid estradiol concentration).

plasma LH = test: Example II: plasma LH and LH pulsatility during 3-day letrozole regimen; type: in vivo, cattle
Protocol: (§1) Four days after follicular ablation, heifers were given 500 μg of cloprostenol (PGF, Estrumate, Schering-Plough Animal Health, Pointe-Claire, QC, Canada) intramuscularly (im) to induce regression of the CL and to synchronize ovulation. The experiment was performed in two replicates (n=20-27 per replicate) and each heifer was used only once. In replicate 1, heifers were assigned randomly at the time of ovulation (Day 0) to the following groups and given a 3-day regimen of letrozole from Days 1 to 3 (n=5), Days 3 to 5 (n=5), Days 5 to 7 (n=5), or no treatment (control group, n=5). In replicate 2, heifers were similarly assigned to groups and given letrozole from Days 1 to 3, (n=5), Days 3 to 5 (n=4), or Days 5 to 7 (n=4), but untreated control heifers were arranged in three sub-groups to serve as contemporaneous controls for each letrozole-group during intensive blood sampling periods (i.e., control Days 1 to 3, n=4; control Days 3 to 5, n=4; and control Days 5 to 7, n=5). For practical purposes, the total dose of letrozole (250 μg/kg) was calculated on the basis of an average weight of 350 kg for all heifers and administered intravenously in daily divided doses over 3 days (85 μg/kg per day). For intravenous injection, letrozole was prepared in 95% ethanol to a final concentration of 5 mg/ml, resulting in an injection volume of 6 mL/day.
(§2) Blood samples were collected by jugular or coccygeal venipuncture into 10 ml heparinised, vacuum tubes (Vacutainer tubes; Becton Dickinson Vacutainer Systems, Franklin Lakes, N.J., USA). Blood samples were collected daily from pre-treatment ovulation to post-treatment ovulation. In replicate 1, additional samples were collected from letrozole-treated heifers every 12 hours from the beginning of treatment to first wave emergence. In replicate 2, heifers were sampled at 15 minute intervals for the first 8 hours after the second dose of letrozole (i.e., second day of treatment) using an indwelling jugular catheter, as described previously. Blood samples were centrifuged at 1500×g for 20 minutes, and plasma was separated and stored in plastic tubes at −20° C.
Plasma LH concentrations were determined in duplicate using a double-antibody radioimmunoassay (NIDDK-bLH4). The minimum and maximum values along the standard curve were 0.06 and 8 ng/mL, respectively. The intra- and inter-assay coefficients of variation were 7.9% and 2.5%, respectively, for low reference samples (mean, 0.85 ng/mL) and 8.6% and 9.5%, respectively, for high reference samples (mean, 2.5 ng/mL).
Statistical analyses were done using the Statistical Analysis System software package (SAS Learning Edition 9.1, 2006; SAS Institute Inc., Cary, N.C., USA). Time-series hormone data, plasma letrozole concentration, and follicular and luteal diameter profiles were analysed by repeated measures, using the PROC MIXED procedure. The main effects were treatment, time, and their interactions. […] Single point measurements (interwave and interovulatory intervals, interval from ovulation to onset of CL regression, mean and basal LH concentrations, LH pulse amplitude and frequency, and pharmacokinetic parameters for letrozole) were analysed by analysis of variance. […] If significant main effects or interactions (P≦0.05) were detected, Tukey's post-hoc test was used for multiple comparisons.
Due to individual variability in circulating hormone concentrations among heifers, and because our objective was to determine the effect of treatment within individuals, data on LH and FSH concentrations were transformed to a percentage of the mean concentration of the two first data points collected (Days 0 and 1) for each individual heifer before analysis of variance for repeated measures. For the same reasons, estradiol concentrations were transformed to a percentage of the mean concentration of two pre-treatment data points ([…] each individual heifer before statistical analysis. […]

circulating estradiol [1] = conditions: post-menopausal women [30]; cited from earlier work
[2] = Example II: plasma letrozole concentration during 3-day regimen (HPLC/MS); type: in vivo, cattle; conditions: for plasma letrozole concentration, overall mean: 85 μg/kg/day iv
Protocol: as §1, §2
Plasma concentrations of letrozole were determined from samples collected every 12 hours from pre-treatment to one day after cessation of treatment using high performance liquid chromatographytandem mass spectrometry (HPLC/MS) as described in Chapter 4, Section 4.3.6.

circulating estradiol [3] = conditions: boars [56]; cited from earlier work
[4] = treatment period Day 1-3, 15 min samples over 8 hours
[5] = treatment period Day 3-5, 15 min samples over 8 hours
[6] = treatment period Day 5-7, 15 min samples over 8 hours
[7] = 85 μg/kg/day iv for 3 days, all three groups

N#Cc1ccc(C(c2ccc(C#N)cc2)n2cncn2)cc1 [Letrozole, letrozole]
plasma progesterone concentrations vs IM controls (plasma progesterone): tended to be higher | plasma LH concentrations among groups, daily samples (plasma LH; 3-day regimen): No significant differences | plasma LH, percent of the mean of Days 0 and 1 (plasma LH; AM samples collected during treatment): 93.6±14.85% | Basal LH (plasma LH; [4]): 0.38 ± 0.11 ng/mL | LH pulse amplitude (plasma LH; [4]): 0.46 ± 0.15 ng/mL | LH pulse frequency (plasma LH; [4]): 0.95 pulses/h | Mean LH (plasma LH; treatment period Day 1-3, 15 min samples over 8 hours after second dose): 0.52 ± 0.15 ng/mL | Basal LH (plasma LH; [5]): 0.08 ± 0.03 ng/mL | LH pulse amplitude (plasma LH; [5]): 0.40 ± 0.18 ng/mL | LH pulse frequency (plasma LH; [5]): 0.53 pulses/h | Mean LH (plasma LH; [5]): 0.15 ± 0.5 ng/mL | Basal LH (plasma LH; [6]): 0.13 ± 0.02 ng/mL | LH pulse amplitude (plasma LH; [6]): 0.88 ± 0.37 ng/mL | LH pulse frequency (plasma LH; [6]): 0.41 pulses/h | Mean LH (plasma LH; [6]): 0.21 ± 0.04 ng/mL | reduction in circulating estradiol concentrations (circulating estradiol [1]): 97-99% | time after initiation of treatment by which plasma letrozole was elevated [2, 7]: ≤ 12 h | time by which plasma letrozole declined to approximately half peak values [2, 7]: ≤ 108 h | time by which plasma letrozole reached peak levels [2, 7]: ≤ 60 h | plasma letrozole concentration, overall mean ([2]; Days 1 to 3): 68.6 ± 4.79 ng/mL | plasma letrozole concentration, overall mean ([2]; Days 3 to 5): 43.9 ± 4.75 ng/mL | plasma letrozole concentration, overall mean ([2]; Days 5 to 7): 55.6 ± 4.75 ng/mL | mean circulating level of letrozole during the first 96 hours ([2]; 250 μg/kg, 3-day protocol): 60.8 ± 3.36 ng/mL | concentration at 96 hours ([2]; female, bovine, plasma, intravenous, 85 μg/kg per day, 250 μg/kg divided in a 3-day regimen, read-out: mean concentration of letrozole in the circulation at 96 hours): 51.6 ± 4.33 ng/mL | reduction in circulating estradiol concentrations (circulating estradiol [3]): 88%
